Like-named read-outs stand apart in the source and are kept apart here.
Legend:
[1] = molecular target: T1, TXA2 receptor (Homo sapiens, UniProt P21731); experiment: Binding activity to TXA2 receptor ([3H](+)-S-145 sodium salt, human platelet membrane fraction)
T1 construct: The human platelet membrane fraction was prepared in accordance with Experiment 1 (1); from tissue; host or cells: human platelet membrane fraction from blood of healthy volunteers
T1 sequence (P21731 1-343): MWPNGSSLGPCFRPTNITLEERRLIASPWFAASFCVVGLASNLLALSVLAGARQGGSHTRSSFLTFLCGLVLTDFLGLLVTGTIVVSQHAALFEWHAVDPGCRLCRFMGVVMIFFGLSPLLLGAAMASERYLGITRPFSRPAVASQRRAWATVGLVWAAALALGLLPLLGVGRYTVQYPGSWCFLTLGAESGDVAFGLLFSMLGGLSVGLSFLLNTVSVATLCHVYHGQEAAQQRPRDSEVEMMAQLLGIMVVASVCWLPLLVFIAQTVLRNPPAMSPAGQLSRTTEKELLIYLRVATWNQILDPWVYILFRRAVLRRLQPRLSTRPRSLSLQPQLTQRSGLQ
Method: Experiment 2 Binding Activity to TXA2 Receptor
(§1) (1) Preparation of Human Platelet Membrane Fraction
The human platelet membrane fraction was prepared in accordance with Experiment 1 (1).
(2) Binding to TXA2 Receptor
To a binding-reaction solution (50 mM Tris/HCl, pH 7.4, 10 mM MgCl2) (0.2 ml) were added the human platelet membrane fraction (0.05 mg) and 2 nM Sodium [^3H](+)-(5Z)-7-[3-endo-[(phenylsulfonyl)amino]bicyclo[2.2.1]hept-2-exo-yl]heptenoate (Japanese Patent Publication (Kokoku) No.79060/1993, hereinafter referred to as (+)-S-145 sodium salt) (26.4 Ci/mmol), and the mixture was reacted at room temperature for 90 min. After the reaction, the resultant mixture was filtered through a glass fiber filter paper and washed several times with cooled physiological saline, then the radioactivity retained on the filter paper was measured. The specific-binding ratio was calculated by subtracting the non-specific binding ratio (the radio activity similarly determined in the presence of 10 μM (+)-S-145 sodium salt) from the total binding. The inhibitory activity of each compound was expressed as the concentration required for 50% inhibition (IC50), which was determined by depicting a substitution curve by plotting the binding ratio (%) in the presence of each compound, where the binding ratio in the absence of a test compound is 100%.

[2] = molecular target: T2, PGD2 receptor (Homo sapiens, UniProt Q13258); experiment: Binding activity to PGD2 receptor ([3H]PGD2, human platelet membrane fraction)
T2 construct: A suspension adjusted to contain the platelets at a final concentration of 5×10^8/ml was warmed at 37° C; endogenous in cells; host or cells: washed human platelets from a healthy volunteer
T2 sequence (Q13258 1-359): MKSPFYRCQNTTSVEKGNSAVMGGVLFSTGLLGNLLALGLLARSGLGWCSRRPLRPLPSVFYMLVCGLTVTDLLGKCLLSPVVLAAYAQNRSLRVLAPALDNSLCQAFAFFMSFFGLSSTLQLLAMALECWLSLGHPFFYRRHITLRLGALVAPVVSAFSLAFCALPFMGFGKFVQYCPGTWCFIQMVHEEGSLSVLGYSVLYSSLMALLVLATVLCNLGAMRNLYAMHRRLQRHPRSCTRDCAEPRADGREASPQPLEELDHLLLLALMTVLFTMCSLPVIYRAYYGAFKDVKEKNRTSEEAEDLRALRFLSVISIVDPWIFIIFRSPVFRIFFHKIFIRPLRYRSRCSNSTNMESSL
Method: Experiment 1 Binding Activity to PGD2 Receptor
as §1
Blood was collected using a plastic syringe containing 3.8% sodium citrate from the vein of healthy volunteers (adult male and female), then put into a plastic test tube and mixed by slow-reversion. The sample was then centrifuged at 1800 rpm, for 10 min at room temperature, and the supernatant containing PRP (platelet-rich plasma) was collected. The PRP was re-centrifuged at 2300 rpm, for 22 min at room temperature to obtain platelets. The platelets were homogenized using a homogenizer (Ultra-Turrax) followed by centrifugation 3 times at 20,000 rpm, 10 min at 4° C. to obtain a platelet membrane fraction. After protein determination, the membrane fraction was adjusted to 2 mg/ml and preserved in a refrigerator at −80° C. until using for the binding test.
(2) Binding to PGD2 Receptor
To a binding-reaction solution (50 mM Tris/HCl, pH 7.4, 5 mM MgCl2) (0.2 ml) were added the human platelet membrane fraction (0.1 mg) and 5 nM [^3H]PGD2 (115 Ci/mmol), and the mixture was reacted at 4° C. for 90 min. After the reaction, the mixture was filtered through a glass fiber filter paper and washed several times with cooled physiological saline, then the radioactivity retained on the filter paper was measured. The specific-binding ratio was calculated by subtracting the non-specific binding ratio which is the radioactivity similarly measured in the presence of 10 μM PGD2 from the total binding. The inhibitory activity of each compound was expressed as the concentration required for 50% inhibition (IC50), which was determined by depicting a substitution curve by plotting the binding ratio (%) in the presence of each compound, where the binding ratio in the absence of a test compound is 100%.

[3] = molecular target: T2, PGD2 receptor; experiment: Antagonistic activity against PGD2 receptor using human platelet (inhibition of PGD2-induced cAMP increase); format: cell-based
Method: Experiment 3 Evaluation of Antagonistic Activity Against PGD2 Receptor
Receptor Using Human Platelet
Peripheral blood was collected from a healthy volunteer using a syringe in which 1/9 volume of a citric acid/dextrose solution was previously added. The sample was subjected to centrifugation at 1200 rpm for 10 min to obtain the supernatant (PRP: platelet rich plasma). The resultant PRP was washed 3 times with a washing buffer and the number of platelets was counted with a micro cell counter. A suspension adjusted to contain the platelets at a final concentration of 5×10^8/ml was warmed at 37° C., then subjected to the pre-treatment with 3-isobutyl-1-methylxanthine (0.5 mM) for 5 min. To the suspension was added a test compound diluted at various concentration, and 10 minutes later, 0.1 μM PGD2 was added to induce the reaction 2 minutes later, hydrochloric acid was added to terminate the reaction. The platelet was destroyed with an ultrasonic homogenizer. After centrifugation, the cAMP in the supernatant was determined by radioimmunoassay. PGD2 receptor antagonism of a drug was evaluated as follows: the inhibition rate regarding cAMP increased by the addition of PGD2 was determined at each concentration, and the concentration of the drug required for 50% inhibition (IC50) was calculated.

[4] = human platelet membrane fraction, 2 nM [3H](+)-S-145 sodium salt, read-out: Binding activity to TXA2 receptor in human platelet membrane fraction IC50
[5] = human platelet, 0.1 μM PGD2, read-out: Inhibitory activity for the increase of cAMP caused by PGD2 in human platelet IC50
[6] = human platelet membrane fraction, read-out: Binding activity to PGD2 receptor in human platelet membrane fraction IC50

CC1(C)[C@H]2C[C@H](C/C=C\CCCC(=O)O)[C@@H](NC(=O)c3csc4ccccc34)[C@@H]1C2 [B-1, reference compound]
IC50 ([1]; comparative experiment in accordance with Experiment 2, read-out: Experiment 2 Antagonistic activity against TXA2 receptor IC50): 370 nM | IC50 ([2]; comparative experiment in accordance with Experiment 1, read-out: Experiment 1 Antagonistic activity against PGD2 receptor IC50): 22 nM | IC50 ([3]; comparative experiment in accordance with Experiment 3, read-out: Experiment 3 Antagonistic activity against PGD2 receptor IC50): 30 nM

O=C(O)CCCC[C@H]1[C@@H]2CC[C@@H](C2)[C@@H]1NC(=O)c1ccc(Sc2cccs2)s1 [I-5A-59a]
IC50 [1, 4]: 11 nM | IC50 [3, 5]: 79 nM

O=C(O)CCCCCC[C@H]1[C@@H]2CC[C@@H](C2)[C@@H]1NC(=O)c1ccc(Sc2cccs2)s1 [I-7A-59a]
IC50 [1, 4]: 9.8 nM | IC50 [3, 5]: 12 nM

O=C(O)COCCCC[C@H]1[C@@H]2CC[C@@H](C2)[C@@H]1NC(=O)c1ccc(Sc2cccs2)s1 [I-7M-59a]
IC50 [1, 4]: 40 nM | IC50 [3, 5]: 24 nM

O=C(O)CCC/C=C\C[C@H]1[C@@H]2CC[C@@H](C2)[C@@H]1NC(=O)c1ccc(S(=O)(=O)n2cccc2)cc1 [I-10]
IC50 [1, 4]: 92 nM | IC50 [2, 6]: 1.6 nM | IC50 [3, 5]: 1.8 nM

O=C(O)CCC/C=C\C[C@H]1[C@@H]2CC[C@@H](C2)[C@@H]1NC(=O)c1ccc(Cc2ccccc2)s1 [I-31]
IC50 [1, 4]: 130 nM | IC50 [2, 6]: 8.2 nM | IC50 [3, 5]: 5.7 nM

O=C(O)CCC/C=C\C[C@H]1[C@@H]2CC[C@@H](C2)[C@@H]1NC(=O)c1ccc(S(=O)(=O)c2cccs2)s1 [I-47]
IC50 [1, 4]: 6.2 nM | IC50 [2, 6]: 4.1 nM | IC50 [3, 5]: 7 nM

O=C(O)CCC/C=C\C[C@H]1[C@@H]2CC[C@@H](C2)[C@@H]1NC(=O)c1ccc(Sc2cccs2)s1 [I-59]
IC50 [1, 4]: 16 nM | IC50 [2, 6]: 0.41 nM | IC50 [3, 5]: 4.6 nM

O=C(O)CCC/C=C\C[C@H]1[C@@H]2CC[C@@H](C2)[C@@H]1NC(=O)c1ccc(SCc2cccs2)cc1 [I-66]
IC50 [1, 4]: 34 nM | IC50 [2, 6]: 4.6 nM | IC50 [3, 5]: 44 nM

COc1ccccc1Cc1ccc(C(=O)N[C@H]2[C@H]3CC[C@H](C3)[C@@H]2CCCC/C=C/C(=O)O)s1 [I-71-126a]
IC50 [1, 4]: 61 nM | IC50 [3, 5]: 21 nM

Cc1ccc(C)n1S(=O)(=O)c1ccc(C(=O)N[C@H]2[C@H]3CC[C@H](C3)[C@@H]2CCCC/C=C/C(=O)O)s1 [I-71-270a]
IC50 [1, 4]: 0.9 nM | IC50 [3, 5]: 26 nM

O=C(O)CCC/C=C\C[C@H]1[C@@H]2CC[C@@H](C2)[C@@H]1NC(=O)c1ccc(Sc2ccsc2)s1 [I-79]
IC50 [1, 4]: 15 nM | IC50 [2, 6]: 0.42 nM | IC50 [3, 5]: 24 nM

O=C(O)CCC/C=C\C[C@H]1[C@@H]2CC[C@@H](C2)[C@@H]1NC(=O)c1ccc(S(=O)(=O)c2ccsc2)s1 [I-80]
IC50 [1, 4]: 5.2 nM | IC50 [2, 6]: 6.6 nM | IC50 [3, 5]: 39 nM

Cc1ccc(S(=O)(=O)c2ccc(C(=O)N[C@H]3[C@H]4CC[C@H](C4)[C@@H]3C/C=C\CCCC(=O)O)s2)s1 [I-82]
IC50 [1, 4]: 1.8 nM | IC50 [2, 6]: 32 nM | IC50 [3, 5]: 53 nM

O=C(O)CCC/C=C\C[C@H]1[C@@H]2CC[C@@H](C2)[C@@H]1NC(=O)c1cc(Cc2cccs2)cs1 [I-88]
IC50 [1, 4]: 78 nM | IC50 [2, 6]: 7.6 nM | IC50 [3, 5]: 4.7 nM

O=C(O)CCC/C=C\C[C@H]1[C@@H]2CC[C@@H](C2)[C@@H]1NC(=O)c1ccc(Cc2cccs2)s1 [I-93]
IC50 [1, 4]: 72 nM | IC50 [2, 6]: 7 nM | IC50 [3, 5]: 8.4 nM

O=C(O)CCC/C=C\C[C@H]1[C@@H]2CC[C@@H](C2)[C@@H]1NC(=O)c1ccn(S(=O)(=O)c2cccs2)c1 [I-94]
IC50 [1, 4]: 83 nM | IC50 [2, 6]: 1 nM | IC50 [3, 5]: 10 nM

O=C(O)CCC/C=C\C[C@H]1[C@@H]2CC[C@@H](C2)[C@@H]1NC(=O)c1ccc(CSc2cccs2)s1 [I-104]
IC50 [1, 4]: 39 nM | IC50 [2, 6]: 0.1 nM | IC50 [3, 5]: 1.6 nM

O=C(O)CCC/C=C\C[C@H]1[C@@H]2CC[C@@H](C2)[C@@H]1NC(=O)c1ccc(SCc2cccs2)s1 [I-106]
IC50 [1, 4]: 13 nM | IC50 [2, 6]: 13 nM | IC50 [3, 5]: 9.3 nM

O=C(O)CCC/C=C\C[C@H]1[C@@H]2CC[C@@H](C2)[C@@H]1NC(=O)c1ccc(S(=O)(=O)c2cccc(O)c2)s1 [I-117]
IC50 [1, 4]: 3.8 nM | IC50 [2, 6]: 9.1 nM | IC50 [3, 5]: 47 nM

Cc1ccc(Cc2ccc(C(=O)N[C@H]3[C@H]4CC[C@H](C4)[C@@H]3C/C=C\CCCC(=O)O)s2)c(C)c1 [I-128]
IC50 [1, 4]: 48 nM | IC50 [2, 6]: 20 nM | IC50 [3, 5]: 10 nM

Cc1ccc(Cc2ccc(C(=O)N[C@H]3[C@H]4CC[C@H](C4)[C@@H]3C/C=C\CCCC(=O)O)s2)s1 [I-129]
IC50 [1, 4]: 52 nM | IC50 [2, 6]: 11 nM | IC50 [3, 5]: 22 nM

Cc1cccc(Cc2ccc(C(=O)N[C@H]3[C@H]4CC[C@H](C4)[C@@H]3C/C=C\CCCC(=O)O)s2)c1 [I-131]
IC50 [1, 4]: 19 nM | IC50 [2, 6]: 44 nM | IC50 [3, 5]: 41 nM

Cc1cccc(SCc2ccc(C(=O)N[C@H]3[C@H]4CC[C@H](C4)[C@@H]3C/C=C\CCCC(=O)O)s2)c1 [I-132]
IC50 [1, 4]: 12 nM | IC50 [2, 6]: 32 nM | IC50 [3, 5]: 43 nM

O=C(O)CCC/C=C\C[C@H]1[C@@H]2CC[C@@H](C2)[C@@H]1NC(=O)c1ccc(Cc2cc3ccccc3o2)s1 [I-136]
IC50 [1, 4]: 16 nM | IC50 [2, 6]: 23 nM | IC50 [3, 5]: 15 nM

O=C(O)CCC/C=C\C[C@H]1[C@@H]2CC[C@@H](C2)[C@@H]1NC(=O)c1ccc(Cc2ccc(OCc3ccccc3)c(O)c2)s1 [I-146]
IC50 [1, 4]: 19 nM | IC50 [2, 6]: 44 nM | IC50 [3, 5]: 73 nM

O=C(O)CCC/C=C\C[C@H]1[C@@H]2CC[C@@H](C2)[C@@H]1NC(=O)c1cc2ccc(Cc3ccccc3)cc2s1 [I-160]
IC50 [1, 4]: 20 nM | IC50 [2, 6]: 28 nM | IC50 [3, 5]: 85 nM

O=C(O)CCC/C=C\C[C@H]1[C@@H]2CC[C@@H](C2)[C@@H]1NC(=O)c1csc2c(Cc3cccs3)cccc12 [I-168]
IC50 [1, 4]: 34 nM | IC50 [2, 6]: 0.46 nM | IC50 [3, 5]: 29 nM

O=C(O)CCC/C=C\C[C@H]1[C@@H]2CC[C@@H](C2)[C@@H]1NC(=O)c1csc2c(Cc3ccsc3)cccc12 [I-169]
IC50 [1, 4]: 32 nM | IC50 [2, 6]: 0.61 nM | IC50 [3, 5]: 26 nM
